Measured values reported in US9321772B2, “Substituted pyrazolo[3,4-D]pyrimidines and uses thereof” (The Regents of the University of California, priority 2011, dated 2016).
Entries after “also recorded” stand apart in the source; their conditions may differ.

Tests used:
ptc>dRet^MEN2B flies = assay: Drosophila ptc>dRetMEN2B viability assay; assay type: in vivo; conditions: for notum, scutellum and cuticle defects of ptc>dRetMEN2B adults: drug fed flies; for effect of reducing erk gene dosage on drug efficacy in viability assay: ptc>dRetMEN2B
From the text: FIG. 1A. Suppression of Ret^MEN2B-induced developmental block and whole animal toxicity were scored based on number of embryos (n) that survived as pupae (x) and adults (y). Drugs were mixed into food and fed to flies starting at larval stages.
FIG. 1B. Percent viability of control or drug treated flies determined for pupae (x/n) and adults (y/n).
Described herein is a Drosophila MEN2B model in which an intracellular mutation in the Drosophila Ret ortholog (dRet) was targeted to the eye (Read, R. D. et al., Genetics, 2005. 171(3): p. 1057-81). […] The screen is conducted in developing drosophila embryos. Under normal circumstances, drosophila embryos pass through four developmental steps: embryo→larvae→pupae→adult. […] We calibrated the ptc>dRetMEN2B assay to permit 50% survival to pupariation and 0% survival to adulthood. Mutated forms of RET are believed to be causative in human thyroid cancers including multiple endocrine neoplasia types 2A and 2B (MEN2A and MEN2B). The screen identifies small molecules that (a) suppress the toxicity induced by oncogenic RET and (b) allow flies to develop to functional adults. […] 64(19): p. 7099-109; Sun, L. et al., J Med Chem, 2003. 46(7): p.

[1] = tested on: MEN2B (MZ) thyroid cancer cells; assay: Immunoblot analysis of drug-treated MZ cells; assay type: cell-based, human; conditions: for phospho-Ret and downstream biomarkers: 1 hour of treatment; for cell death (protein markers of apoptosis): 3 days, 2 μM
Method: (§1) FIG. 19. […] MEN2A (TT) and MEN2B (MZ) thyroid cancer cells were treated with the indicated drugs for 3 days at a final concentration of 2 μM. Cell lystates were immunoblotted for protein markers of apoptosis. Vandetanib (vand.) was included for comparison.
(§2) FIG. 20A-20B. […] FIG. 20A. MEN2B (MZ) and FIG. 20B. MEN2A (TT) thyroid cancer cells were treated with the indicated concentrations of drug. Following 1 hour of treatment, cells were harvested and lysates prepared for immunoblotting to detect the indicated proteins. VD=vandetanib; SF=sorafenib.

mTor = mTor (Homo sapiens, UniProt P42345); assay: In vitro kinase assay, mTor; assay type: biochemical; conditions: in vitro kinase profile, 1 μM
Method: Using in vitro kinase assays we tested AD57, AD36, and AD58 at 1 μM for activity against approximately one-half of the human kinome (FIG. 1E): 165 Ser/Thr kinases, 91 Tyr kinases, and 10 PI kinases were assayed, totaling 266 kinases (244 distinct kinases plus 22 mutant isoforms; see FIG. 6A-6C, FIG. 7A-7F, and FIG. 8 for measured inhibition values).
At least three major pathways are required for dRet^MEN2B-mediated transformation: Ras, Src, and glucose metabolism/PI3K (FIG. 3A; Ref (Read, R. D. et al., Genetics, 2005. 171(3): p. 1057-81)). We utilized in vitro kinase assays to assess compound activity against relevant kinases from each of these pathways, specifically Ret, B-Raf, Src, Tor, and S6K (FIG. 3B).

[2] = tested on: TT (MEN2A) thyroid cancer cells; assay: TT cell viability (MTT assay); assay type: cell-based, human
Method: FIG. 18A-18D. […] FIG. 18A. MEN2B (MZ) thyroid cancer cells were treated with the indicated concentrations of each inhibitor (7 days) and cell viability was quantitated by MTT assay. FIG. 18B. MEN2A (TT) thyroid cancer cells were treated with the indicated concentrations of each inhibitor (7 days) and cell viability was quantitated by MTT assay. FIG. 18C. […] Change in tumor volume was calculated per mouse. Values shown are the median percent change per group. 20 and 10 animals for vehicle and drug treated mice, respectively, were analyzed. FIG. 18D. Body weight measurements of AD80, Vandetanib (VD) and vehicle treated nude mice transplanted with TT cells. Values shown are the median of 20 and 10 animals for vehicle and drug treated mice, respectively.

[3] = tested on: MZ-CRC-1 (MEN2B) cancer cell line; assay: MZ-CRC-1 cell viability (MTT assay); assay type: cell-based, human
[4] = tested on: 765>dRet^MEN2B wings (Ras/Erk pathway activity); assay: Adult wing vein pattern assay (765>dRetMEN2B); assay type: in vivo, Drosophila; conditions: drug fed flies
From the text: The adult Drosophila wing consists of a stereotypical pattern of […] and two cross-veins; increased Ras/Erk pathway activity leads to ectopic veins (e.g., Refs. (Sawamoto, K. et al., Dev Biol, 1996. 178(1): p. 13-22; Guichard, A. et al., Development, 1999. 126(12): p. 2663-76)). Expression of oncogenic dRet throughout the developing wing (765>dRet^MEN2B) led to disruption of the overall adult wing pattern including ectopic wing veins (FIG. 3D). Reducing gene dosage of the erk ortholog rolled (765>dRet^MEN2B erk−/+) suppressed these phenotypes (FIG. 3D), confirming that wing vein formation is dependent on Ras/Erk activity.

[5] = tested on: ptc>dRet^MEN2B wing cells; assay: Wing-based assay for transformation and cell migration (ptc>dRetMEN2B); assay type: in vivo, Drosophila; conditions: oral administration
From the text: FIG. 4E. Quantification of ptc>dRet^MEN2B phenotypes. Invasion was established by scoring for single/groups of GFP-labeled cells that relocated away from the ptc boundary (FIG. 4C, asterisks). Basal migration was scored as indentation of the apical surface (see FIG. 2B, arrows). Proliferation was scored as significant widening of the ptc boundary. The number of wings analyzed under each condition is indicated in brackets.
We previously developed a wing-based assay for transformation and cell migration that we utilized to explore Ras- and Src-based tumorigenesis (Vidal, M., D. E. Larson, and R. L. Cagan, Dev Cell, 2006. 10(1): p. 33-44). In this assay, the ptc-GAL4 driver directed oncogene expression in a stripe along the anterior-posterior axis; oncogene-based transformation led to over-proliferation, epithelial-to-mesenchymal transition (EMT), and cell migration away from the ptc domain.

[6] = tested on: MEN2A (TT) thyroid cancer cells; assay: Immunoblot analysis of drug-treated TT cells; assay type: cell-based, human; conditions: for phospho-Ret and downstream biomarkers: 1 hour of treatment; for cell death (protein markers of apoptosis): 3 days, 2 μM
Method: as §1, §2

[7] = tested on: ER4 cells (ER4 subline of HCC827 cells resistant to erlotinib); assay: Apoptosis in ER4 cells (PARP cleavage, BIM induction); assay type: cell-based; conditions: 1 micromolar combined with erlotinib, 24 hour exposure
Method: FIG. 22. Induction of apoptosis by combined EGFR and AXL inhibition. ER4 cells (ER4 subline of HCC827 cells that are resistant to erlotinib treatment) plated at 0.5×10^6 cells/condition. 24-hour drug exposure. Apoptosis measured by induction of PARP cleavage and BIM induction. E is erlotinib, AD57 at 1 micromolar, AD80 at 1 micromolar, AD81 at 10 micromolar.

[8] = oral administration, drug mixed into food

Structure (SMILES) | notum, scutellum and cuticle defects of ptc>dRetMEN2B adults (ptc>dRet^MEN2B flies) | animals rescued / developing to adulthood (ptc>dRet^MEN2B flies; [8]) | rescue of ptc>dRetMEN2B viability (pupae, adults), in words (ptc>dRet^MEN2B flies; [8]) | effect of reducing dTor on drug efficacy/toxicity (ptc>dRet^MEN2B flies; ptc>dRetMEN2B dTor-/+) | effect of reducing erk gene dosage on drug efficacy in viability assay (ptc>dRet^MEN2B flies) | phospho-Ret and downstream biomarkers [1] | cell death (protein markers of apoptosis) [1] | mTor inhibition, in words (mTor) | inhibition of TT cell viability / proliferation, in words [2] | IC50, fold lower than Vandetanib ([2]; TT cell line, dose-response) | inhibition of MZ-CRC-1 cell viability / proliferation, in words [3] | IC50, fold more potent than Sorafenib ([3]; MZ-CRC-1 cell viability) | ectopic wing vein / wing pattern phenotype [4] | basal phospho-Src in wing epithelium [5] | suppression of dRetMEN2B-induced proliferation, EMT, invasion/basal migration [5] | phospho-Ret and downstream biomarkers [6] | cell death (protein markers of apoptosis) [6] | apoptosis (PARP cleavage, BIM induction) [7]
CC(C)n1nc(-c2ccc(NC(=O)Nc3cccc(C(F)(F)F)c3)cc2)c2c(N)ncnc21 [AD57] | strongly suppressed; also recorded: complete suppression of notum and scutellum defects; also recorded: some cuticle defects | approximately 25% | best single-agent hit; also recorded: potently suppressed | dominantly suppressed the efficacy | considerably enhanced the efficacy | potent inhibitors | induce cell death | potent inhibitor | most potent inhibition | more than 150 fold | most potent inhibition | approximately 150 fold | suppressed | suppressed phospho-Src in basal regions of the wing epithelium | potent in vivo suppression; also recorded: strongly suppressed | potent inhibitors | induce cell death | enhances apoptosis
CC(C)n1nc(-c2ccc(NC(=O)Nc3cc(C(F)(F)F)ccc3F)cc2)c2c(N)ncnc21 [AD80] | phenotypically normal | – | improved rescue relative to AD57 | – | did not alter efficacy | potent downregulation of phospho-Ret; also recorded: potent inhibitors | induce cell death | not and greatly reduced mTor activity and lack significant inhibitory activity | inhibited proliferation | – | inhibited proliferation | – | suppressed; also recorded: potently rescued | potently blocked | significantly improved suppression; also recorded: potently blocked | potent downregulation of phospho-Ret; also recorded: potent inhibitors | induce cell death | enhances apoptosis
